Literature values in patent US20190177430A1, “Methods of Treating Cancers With Chemotherapy With Reduced Toxicity” (The Wistar Institute of Anatomy and Biology, priority 2016, published 2019).

Settings: dosages of 250 mg/m^2

Doxorubicin-induced cardiac dysfunction, share of treated patients: 9%
Compound: COc1cccc2c1C(=O)c1c(O)c3c(c(O)c1C2=O)C[C@@](O)(C(=O)CO)C[C@@H]3O[C@H]1C[C@H](N)[C@H](O)[C@H](C)O1 [Doxorubicin, (7S,9S)-7-[(2R,4S,5S,6S)-4-amino-5-hydroxy-6-methyloxan-2-yl]oxy-6,9,11-trihydroxy-9-(2-hydroxyacetyl)-4-methoxy-8,10-dihydro-7H-tetracene-5,12-dione]
